{"source": "patent US20110212986A1", "about": "“ANTI-FLAVIVIRUS THERAPEUTIC” (priority 2008, published 2011)", "key": {"[1]": {"system": "WNV (epidemic strain 3356)", "assay": "microbe, parasite or virus in culture", "type": "cell-based", "conditions": "West Nile virus, Vero, 42 h"}, "[2]": {"system": "G6871A mutant virus (WNV)", "type": "cell-based", "conditions": "Vero cells, 0.1 MOI"}, "in vitro": {"assay": "in vitro", "conditions": "African green monkey"}, "[3]": {"system": "G6871A mutant WNV replicon (Rluc2A-Rep)", "type": "cell-based, West Nile virus", "conditions": "1.5 μM; BHK-21 cells"}, "[4]": {"system": "VSV (New Jersey serotype)", "type": "cell-based, vesicular stomatitis virus"}, "[5]": {"system": "Vero cells containing WNV replicon (Rluc-Neo-Rep)", "type": "cell-based, West Nile virus", "conditions": "1.5-1 μM for 24 h or 48 h"}, "WNV VLP": {"system": "WNV VLP", "type": "cell-based, West Nile virus", "conditions": "1.5 μM"}, "[6]": {"system": "Vero cells containing DENV-1 replicon (Rluc-Neo-Rep)", "type": "cell-based, dengue virus", "conditions": "1.5-1 μM for 24 h or 48 h"}, "poliovirus": {"system": "poliovirus", "conditions": "cited from earlier work"}, "[7]": {"system": "lycorine-resistant WNV (P12 viruses)", "assay": "Resistance assay, lycorine-resistant P12 WNV", "type": "cell-based, West Nile virus", "conditions": "1.2 μM"}, "[8]": {"system": "Rluc2A-Rep of DENV-1 in BHK-21 cells", "type": "cell-based, dengue virus"}, "WNV MTase": {"molecular_target": "WNV MTase (West Nile virus, UniProt Q9Q6P4)", "sequence (Q9Q6P4 2529-3433)": "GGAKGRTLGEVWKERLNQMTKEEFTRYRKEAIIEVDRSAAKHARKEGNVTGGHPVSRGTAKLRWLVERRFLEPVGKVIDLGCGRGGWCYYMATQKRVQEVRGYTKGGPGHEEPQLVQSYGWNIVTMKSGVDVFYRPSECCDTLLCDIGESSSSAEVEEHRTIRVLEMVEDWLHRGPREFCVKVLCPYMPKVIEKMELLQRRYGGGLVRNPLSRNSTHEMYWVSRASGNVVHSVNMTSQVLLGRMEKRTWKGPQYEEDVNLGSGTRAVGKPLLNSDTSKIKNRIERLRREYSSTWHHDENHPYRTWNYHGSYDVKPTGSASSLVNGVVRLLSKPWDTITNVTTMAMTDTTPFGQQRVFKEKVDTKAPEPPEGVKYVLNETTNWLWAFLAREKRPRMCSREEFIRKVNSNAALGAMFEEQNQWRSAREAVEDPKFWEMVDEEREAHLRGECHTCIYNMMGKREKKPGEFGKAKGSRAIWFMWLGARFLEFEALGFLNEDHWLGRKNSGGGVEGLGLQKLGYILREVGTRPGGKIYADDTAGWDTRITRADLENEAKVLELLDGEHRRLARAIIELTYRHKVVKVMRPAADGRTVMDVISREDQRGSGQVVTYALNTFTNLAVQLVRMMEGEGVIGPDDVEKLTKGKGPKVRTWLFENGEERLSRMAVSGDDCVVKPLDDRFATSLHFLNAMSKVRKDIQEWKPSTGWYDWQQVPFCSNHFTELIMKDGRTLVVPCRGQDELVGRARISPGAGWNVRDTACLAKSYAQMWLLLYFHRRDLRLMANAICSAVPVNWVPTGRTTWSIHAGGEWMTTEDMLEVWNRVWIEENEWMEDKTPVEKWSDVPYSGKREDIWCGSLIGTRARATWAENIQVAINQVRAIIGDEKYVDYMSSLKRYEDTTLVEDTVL", "assay": "Enzyme assay, recombinant WNV MTase", "conditions": "concentrations up to 100 μM"}, "WEEV (strain Cova 746)": {"system": "WEEV (strain Cova 746)", "type": "cell-based, Western equine encephalitis virus"}, "WNV": {"system": "WNV", "assay": "Time-of-addition analysis in WNV infection", "type": "cell-based, West Nile virus", "conditions": "1.2 μM; Vero cells, WNV MOI 10; titers at 20 h post-infection"}, "WNV RdRp": {"molecular_target": "WNV RdRp (West Nile virus, UniProt Q9Q6P4)", "sequence (Q9Q6P4 2529-3433)": "as above", "assay": "Enzyme assay, recombinant WNV RdRp", "conditions": "concentrations up to 100 μM"}, "[9]": {"system": "Rluc2A-Rep of WNV in BHK-21 cells", "type": "cell-based, West Nile virus"}, "WNV NTPase": {"molecular_target": "WNV NTPase (West Nile virus, UniProt Q9Q6P4)", "sequence (Q9Q6P4 1506-2124)": "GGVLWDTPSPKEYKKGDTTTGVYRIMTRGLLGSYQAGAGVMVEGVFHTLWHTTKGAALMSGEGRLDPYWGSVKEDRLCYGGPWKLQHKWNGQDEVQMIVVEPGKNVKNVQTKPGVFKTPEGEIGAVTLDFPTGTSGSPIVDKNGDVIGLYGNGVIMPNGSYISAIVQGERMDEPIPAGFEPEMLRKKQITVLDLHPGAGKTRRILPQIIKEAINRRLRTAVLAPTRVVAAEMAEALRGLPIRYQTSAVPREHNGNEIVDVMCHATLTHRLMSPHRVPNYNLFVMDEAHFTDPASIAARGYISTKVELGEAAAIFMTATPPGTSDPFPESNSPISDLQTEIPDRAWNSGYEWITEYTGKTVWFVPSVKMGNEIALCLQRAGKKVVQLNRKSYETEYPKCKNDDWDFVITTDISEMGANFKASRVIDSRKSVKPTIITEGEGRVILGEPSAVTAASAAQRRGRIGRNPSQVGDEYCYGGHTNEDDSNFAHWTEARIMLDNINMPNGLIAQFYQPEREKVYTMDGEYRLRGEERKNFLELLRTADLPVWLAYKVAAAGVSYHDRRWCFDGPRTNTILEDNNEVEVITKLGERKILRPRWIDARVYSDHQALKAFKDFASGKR", "assay": "Enzyme assay, recombinant WNV NTPase", "conditions": "concentrations up to 100 μM"}, "WNV protease (with NS2B)": {"molecular_target": "WNV protease (with NS2B) (West Nile virus, UniProt Q9Q6P4)", "sequence (Q9Q6P4 1506-2124)": "as above", "sequence (Q9Q6P4 1375-1505)": "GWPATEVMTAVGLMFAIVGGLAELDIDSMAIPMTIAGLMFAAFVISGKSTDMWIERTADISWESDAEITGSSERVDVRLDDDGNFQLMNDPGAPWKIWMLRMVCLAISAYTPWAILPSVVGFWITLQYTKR", "assay": "Enzyme assay, recombinant WNV protease", "conditions": "concentrations up to 100 μM"}, "HIV-1": {"system": "HIV-1", "conditions": "at a noncytotoxic concentration; Szlavik et al., 2004; cited from earlier work"}, "WNV (WT and G6871A MT)": {"system": "WNV (WT and G6871A MT)", "type": "cell-based", "conditions": "1.2 μM; Vero cells, MOI 5; each time point"}, "DENV-1 VLP": {"system": "DENV-1 VLP", "type": "cell-based, dengue virus", "conditions": "1.5 μM"}}, "note": "Entries after “also recorded” stand apart in the source; their conditions may differ.", "data": [{"compound": "CC(=O)O[C@H]1[C@H]2c3cc4c(cc3CN3CCC(=C[C@@H]1OC(C)=O)[C@H]23)OCO4", "note": "[Compound 1180]", "values": [{"measurement": "EC50", "setting": "[1]", "value": 1490, "unit": "nM"}]}, {"compound": "CC(=O)O[C@H]1[C@H]2c3cc4c(cc3CN3CCC(=C[C@@H]1O)[C@H]23)OCO4", "note": "[Compound 1181]", "values": [{"measurement": "EC50", "setting": "[1]", "value": 860, "unit": "nM"}]}, {"compound": "CC(=O)O[C@H]1[C@H]2c3cc4c(cc3CN(C(=O)OCC(Cl)(Cl)Cl)[C@@H]2C(CCCl)=C[C@@H]1OC(C)=O)OCO4", "note": "[Compound 1193]", "values": [{"measurement": "EC50", "setting": "[1]", "value": "> 300000", "unit": "nM"}, {"measurement": "CC50", "setting": "Vero cells; African green monkey", "value": "> 300", "unit": "µM"}]}, {"compound": "CC(=O)OCCC1=C[C@H](OC(C)=O)[C@@H](OC(C)=O)[C@H]2c3cc4c(cc3CN(C(=O)OCC(Cl)(Cl)Cl)[C@H]12)OCO4", "note": "[Compound 1194]", "values": [{"measurement": "EC50", "setting": "[1]", "value": 72000, "unit": "nM"}, {"measurement": "CC50", "setting": "Vero cells; African green monkey", "value": "> 300", "unit": "µM"}]}, {"compound": "CC(=O)O[C@H]1[C@H]2c3cc4c(cc3C(=O)N3CCC(=C[C@@H]1OC(C)=O)[C@H]23)OCO4", "note": "[Compound 1197]", "values": [{"measurement": "EC50", "setting": "[1]", "value": "≥ 300000", "unit": "nM"}, {"measurement": "CC50", "setting": "Vero cells; African green monkey", "value": "> 300", "unit": "µM"}]}, {"compound": "CC(C)(C)[Si](C)(C)O[C@H]1C=C2CCN3Cc4cc5c(cc4[C@H]([C@@H]1O)[C@@H]23)OCO5", "note": "[Compound 1198]", "values": [{"measurement": "EC50", "setting": "[1]", "value": 730, "unit": "nM"}]}, {"compound": "CC(=O)O[C@@H]1C(=O)C=C2CCN3Cc4cc5c(cc4[C@H]1[C@@H]23)OCO5", "note": "[Compound 1200]", "values": [{"measurement": "EC50", "setting": "[1]", "value": 190, "unit": "nM"}, {"measurement": "CC50", "setting": "Vero cells; African green monkey", "value": "> 300", "unit": "µM"}, {"measurement": "resistance of G6871A mutant virus to the compound", "setting": "[2]", "value": "resistant"}, {"measurement": "CC50", "setting": "in vitro", "value": "> 300", "unit": "µM"}]}, {"compound": "O[C@H]1[C@H]2c3cc4c(cc3CN3CCC(=C[C@@H]1O)[C@H]23)OCO4", "note": "[Lycorine]", "values": [{"measurement": "EC50", "setting": "[1]", "value": 230, "unit": "nM"}, {"measurement": "suppression of reporting signals at 2, 4, and 6 h p.t., G6871A mutant replicon", "setting": "[3]", "value": "≤ 30", "unit": "%"}, {"measurement": "inhibition of VSV (viral titer)", "setting": "[4]", "value": "did not inhibit; also recorded: suppressed titers of neither WEEV nor VSV; also recorded: does not inhibit"}, {"measurement": "luciferase activities in WNV Rluc-Neo-Rep cells", "setting": "[5]", "value": "reduced luciferase activities"}, {"measurement": "CC50", "setting": "Vero cells; African green monkey", "value": 24, "unit": "µM"}, {"measurement": "cell viability", "setting": "Vero cells; African green monkey", "value": "> 90", "unit": "%"}, {"measurement": "decrease of viability of Vero cells", "setting": "Vero cells; at 31 μM", "value": "~50", "unit": "%"}, {"measurement": "reduction of luciferase signals, WNV VLP-infected cells", "setting": "WNV VLP", "value": "1,400 fold"}, {"measurement": "luciferase activities in DENV Rluc-Neo-Rep cells", "setting": "[6]", "value": "reduced luciferase activities"}, {"measurement": "suppression of poliovirus viral translation", "setting": "poliovirus", "value": "~90", "unit": "%"}, {"measurement": "increase of resistance of the P12 viruses over that of the WT", "setting": "[7]", "value": "approximately 100 fold"}, {"measurement": "reduction of viral titers of P12 virus-infected cells", "setting": "[7]; Vero cells, MOI 0.1, 42 h p.i.", "value": "approximately 10 fold"}, {"measurement": "suppression of early luciferase signals (viral translation), DENV-1 replicon", "setting": "[8]; 1.5 μM, 2, 4, and 6 h p.t.", "value": "≤ 30", "unit": "%"}, {"measurement": "reduction of late luciferase signals (RNA synthesis), DENV-1 replicon", "setting": "[8]; 1.5 μM, 24, 30 and 48 h p.t.", "value": "> 99", "unit": "%"}, {"measurement": "suppression of WNV MTase activity", "setting": "WNV MTase", "value": "None of the enzyme activities were suppressed"}, {"measurement": "inhibition of WEEV (viral titer)", "setting": "WEEV (strain Cova 746)", "value": "did not inhibit; also recorded: suppressed titers of neither WEEV nor VSV; also recorded: does not inhibit"}, {"measurement": "resistance of G6871A mutant virus to the compound", "setting": "[2]", "value": "showed a resistance level close to those of the P12 viruses"}, {"measurement": "antiviral activity when added after 10 h post-infection", "setting": "WNV", "value": "completely lost its antiviral activity; also recorded: completely lost the inhibitory activity"}, {"measurement": "suppression of WNV RdRp activity", "setting": "WNV RdRp", "value": "None of the enzyme activities were suppressed"}, {"measurement": "suppression of early luciferase signals (viral translation), WNV replicon", "setting": "[9]; 1.5 μM, 2, 4, and 6 h p.t.", "value": "≤ 30", "unit": "%"}, {"measurement": "reduction of late luciferase signals (RNA synthesis), WNV replicon", "setting": "[9]; 1.5 μM, 24, 30 and 48 h p.t.", "value": "> 99", "unit": "%"}, {"measurement": "suppression of WNV NTPase activity", "setting": "WNV NTPase", "value": "None of the enzyme activities were suppressed"}, {"measurement": "suppression of WNV protease (with NS2B) activity", "setting": "WNV protease (with NS2B)", "value": "None of the enzyme activities were suppressed"}, {"measurement": "inhibition of HIV-1", "setting": "HIV-1", "value": "does not inhibit"}, {"measurement": "viral protein expression (NS1, NS3, NS5), western blotting", "setting": "WNV (WT and G6871A MT)", "value": "suppressed viral protein expression"}, {"measurement": "reduction of luciferase signals, DENV-1 VLP-infected cells", "setting": "DENV-1 VLP", "value": "1,200 fold"}]}]}
